How the values were obtained:
[1] = tested on: human lung fibroblasts (IMR-90; fibroblasts of normal or UIP patients); test: TGF-β-treated lung fibroblast proliferation and myofibroblast differentiation; type: cell-based; details: pretreatment 0.1 to 1 μM, then TGF-β 24 h
Protocol: IMR-90 cells were cultured in Dulbecco's modified Eagle's medium (DMEM) containing 10% heat-inactivated fetal bovine serum, penicillin, and streptomycin (100 IU/ml). Monolayer cultures were deprived of serum for 24 h, and treated with different concentrations of PB141 for different time periods as indicated. Cell numbers were then counted at 24, 48, and 72 h. Data are representative of one of two independent experiments; n=3.
IMR-90 cells were cultured in Dulbecco's modified Eagle's medium (DMEM) containing 10% heat-inactivated fetal bovine serum, penicillin, and streptomycin (100 IU/ml). Monolayer cultures were deprived of serum for 24 h, pre-treated with 0.5 μM PB141 or with vehicle (saline) for 1 h, and then exposed to 2 ng/ml TGF-β for 24 h. (A) Western blot analysis for α-smooth muscle actin. (B) Quantitative values for each condition. ***P<0.001 vs Veh. (C) Immunofluorescence microscopy for α-SMA following treatment. Blots and images are representative of two independent experiments.
Additional in vitro experiments were performed using normal human fetal lung fibroblasts (IMR-90; Institute for Medical Research, Camden, N.J.) or fibroblasts grown from mechanically dissociated surgical lung biopsy of histologically normal or usual interstitial pneumonia (UIP) patients. […]

[2] = tested on: NNK-induced lung tumorigenesis in A/J mice; test: NNK-induced lung tumorigenesis in A/J mice; type: in vivo; details: 25 mg/kg nebulized 30 min/day for eight weeks
Protocol: Induction of lung tumorigenesis by intraperitoneal (i.p.) injection on days 1, 3, and 5 with 50 mg/kg of NNK dissolved in saline was followed by nebulization of PB141 (25 mg/kg) or vehicle (saline) and delivery to cage air via a micropump nebulizer. After 8 weeks the lung was examined histologically following H&E staining. (A) Number of lung lesions. (B) Histology showing lung tumor incidence and burden. Data are representative of one of two independent experiments with n=9-11 mice per group.
A/J mice were injected intraperitoneally on days 1, 3, and 5 with 50 mg/kg of 4-methylnitrosamino-1-(3-pyridyl)-1-butanone (NNK; Chemsyn Science Laboratories, Lenexa, Kans.) dissolved in saline. The mice were then held for 8 weeks to allow development of preinvasive lesions: alveolar hyperplasias and adenomas. […]
Mice were euthanized following the eight-week treatment period. […] Lung lesions were quantified by determining the incidence and prevalence of pulmonary pleural surface tumors, counting both the right and left lungs of each mouse. […] Hyperplastic and neoplastic lesions of the lungs were scored according to the International Classification of Rodent Tumors in 6 or 7 sections per lung. Sections were further assessed for morphometry and Ki67 immunohistochemistry.

[3] = tested on: pulmonary fibrosis in mice; test: Pulmonary fibrosis model (bleomycin, asbestos or X-ray induced); type: in vivo
Protocol: Induction of pulmonary fibrosis by intratracheal injection of bleomycin sulphate (BLM; 0.05 units) was followed by nebulization of PB141 (25 mg/kg) or vehicle (saline) and delivery to cage air via a micropump nebulizer. After 21 days lung samples were obtained. (A) Lung hydroxyproline content. (B) Lung fibrinolysis. (C) Lung collagen content. (D) Lung TGF-β content. Data are representative of one of two independent experiments with n=5-7 mice per group; ** p<0.01, *** p<0.001.
Lung fibrosis was induced by methods previously reported in literature of the relevant art. Briefly, 50 μl of bleomycin sulfate in saline or 0.1 mg of NIEHS crocidolite asbestos (N 10 μm in length) was administered intratracheally into anesthetized mice. In some experiments fibrosis was induced by the following standard X-ray exposure procedure: Anesthetized mice at the age of 10-12 weeks were immobilized, with a lead shield excluding all but the thoracic cavity. Animals were then irradiated with a single dose of 14.5 Gy from a cesium source (J. L. Shepherd and Associates, San Fernando, Calif.) at a dose rate of 1.65 Gy/min LD50 for C57BL/6J mice is 14.5 Gy. At this dose, survival is sufficient to permit adequate numbers of animals for long-term analyses.
After induction of pulmonary fibrosis using the methods as described above, PB141 (25 mg/kg) dissolved in normal saline was delivered for 30 min via a micropump nebulizer (Buxco Research Systems, Wilmington, N.C.) fitted at the chamber inlet. After 21 days, bronchoalveolar lavage fluid (BALF) samples were obtained and analyzed for cellular infiltration by hemocytometer and differential staining of cells. Pulmonary fibrosis was assessed from lung homogenates by estimating total lung collagen content using the Sircol Collagen Assay kit (Biocolor) and hydroxyproline content using a hydroxyproline assay kit (BioVision, Mountain View, Calif.) according to the manufacturer's instructions. Lung histology sections were assessed by morphometry, hematoxylin and eosin (H&E) staining, and Masson's trichrome staining.

Nrf2 = Nrf2 DNA-binding activity and nuclear concentration in BEAS-2B cells; type: cell-based; details: different concentrations, 24 h
Protocol: BEAS-2B cells were treated with varying concentrations of PB141 for 24 h, after which (A) Nrf2 activity was measured or (C) nuclear Nrf2 concentration was determined by Western blotting. (B) In other experiments cells were pretreated with varying concentrations of PB141 for 1 h, then with LPS (500 ng/ml) for 6 h. Cells were then isolated and activity of NF-κB was measured.
BEAS-2B cells were cultured in Dulbecco's modified Eagle's medium (DMEM) containing 10% heat-inactivated fetal bovine serum, penicillin, and streptomycin (100 IU/ml). Monolayer cultures were treated with different concentrations of PB141 for 24 h. Cells were then isolated and the DNA-binding activity of the antioxidant transcription factor Nrf2 was determined. The nuclear concentration of Nrf2 was also determined by Western blotting. […] In some experiments monolayer cultures were deprived of serum for 24 h, pre-treated with different concentrations of PB141 for 1 h, then exposed to LPS for 6 h. Nuclear proteins were prepared and were used to quantify DNA-binding activity of the p65 subunit of NF-κB.

SMILES: CC(=O)N[C@@H](CSC(CC(=O)CC(SC[C@H](NC(C)=O)C(=O)O)c1cnccn1)c1cnccn1)C(=O)O (stereo partly shown) [PB141]
- Proliferation of human lung fibroblasts [1]: inhibited
- Differentiation to myofibroblasts (α-SMA) ([1]; including UIP patient fibroblasts): inhibited
- Inhibition of tumor progression, premalignant lung cancer, and cell proliferation [2]: ~40%
- Collagen production ([3]; 25 mg/kg nebulized, 21 days): effectively prevented
- Inflammatory cell infiltration ([3]; 25 mg/kg nebulized, 21 days): effectively prevented
- Myofibroblast differentiation ([3]; 25 mg/kg nebulized, 21 days): effectively prevented
- Tolerability of the solution ([3]; even with intratracheal administration): well tolerated
- Pulmonary fibrosis ([3]; repeated pulmonary dosing, 25 mg/kg): significantly reduced
- DNA-binding activity of Nrf2 (Nrf2): increased both nuclear localization and DNA-binding activity of Nrf2 in a concentration-dependent manner
- Nuclear localization of Nrf2 (Western blotting) (Nrf2): increased both nuclear localization and DNA-binding activity of Nrf2 in a concentration-dependent manner

Source: patent US9862690B2, “Treatment of pulmonary and other conditions” (University of Pittsburgh—of the Commonwealth System of …, priority 2013, dated 2018)
